# From ChEMBL document CHEMBL3108737, “HIV Integrase Inhibitors for Treatment of HIV Infections and AIDS” (ACS Med Chem Lett, 2014)
# Target: Human immunodeficiency virus type 1 integrase (Human immunodeficiency virus 1) (UniProt Q7ZJM1)
# Test: Inhibition of HIV1 integrase-mediated viral replication in human MT4 cells after 72 hrs in presence of 10% normal human serum
# Format: cell-based
# Sequence of Human immunodeficiency virus type 1 integrase (Human immunodeficiency virus 1) (Q7ZJM1 as listed by the source): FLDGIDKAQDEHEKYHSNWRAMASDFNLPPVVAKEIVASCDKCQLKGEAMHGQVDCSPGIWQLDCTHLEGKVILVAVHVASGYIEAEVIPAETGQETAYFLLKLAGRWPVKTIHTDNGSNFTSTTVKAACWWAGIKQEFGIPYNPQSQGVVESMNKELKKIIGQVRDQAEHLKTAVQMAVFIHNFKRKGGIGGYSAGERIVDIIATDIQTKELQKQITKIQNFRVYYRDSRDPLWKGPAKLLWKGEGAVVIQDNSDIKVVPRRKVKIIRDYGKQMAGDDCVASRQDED
row,Compound,IC95 [nM]
1,CC[C@H]1COC[C@@H]2c3nc(c(O)c(=O)n31)C(=O)NCc1ccc(F)cc1OCCCCC(=O)N2C,9
2,CC[C@H]1COCC2c3nc(c(O)c(=O)n31)C(=O)NCc1cc(C)c(F)cc1OCC/C=C/C(=O)N2C (stereo partly drawn),6
3,CN1CCCc2cc(F)ccc2CNC(=O)c2nc3n(c(=O)c2O)CCCCC3N(C)C(=O)C1=O (stereo not drawn),2260
